Data taken from patent US20110196000A1, “Use of succinate dehydrogenase (SDH) inhibitors in the treatment of plant species from the family of the true grasses” (Bayer CropScience AG, priority 2010, published 2011).

Key:
Format in all cases: in vivo
wheat variety Ritmo = test: Plot trial: yield components; details: sprays at BBCH 39 and 59
[1] = test system: infection-free wheat plants of the cultivar Passat; test: Glasshouse trial: size of the flag leaf; details: for Length of the flag leaf / Width of the flag leaf / Area of the flag leaf / Area [rel.] of the flag leaf: at BBCH 83-85; for Area of the flag leaf: calculated using the formula A = 0.67 × length × width; for Area [rel.] of the flag leaf: untreated = 100
Description: In a glasshouse trial under controlled conditions, the effect of bixafen was investigated on the physiology, morphology and abiotic stress tolerance of infection-free wheat plants of the cultivar […] plants were grown in 10-litre containers over a period of 4 months. The substrate used was standard earth type ED 73 (Fröndenberg, Germany)+C-Horizont+Sand (4:2:1). The supply of nutrient to the plants took place by feeding with a 0.2% strength Flory 2 liquid fertilizer solution (from Euflor, Munich) once every two weeks. The plants were supplied with water as required. In each component of the trial, 10 repetitions were carried out. To prevent infestation with powdery mildew, Proquinazid (Talius® was applied once. The incidence of aphids and spider mites was avoided by treatments with Karate®, Bulldock® and Sumicidin®. The products under test were applied to the plants, in the form of sequential spray sequences (BBCH 39 and 59). The spray volume was 300 l of water per hectare. [table] Morphological parameters measured, additionally, were the length and width, i.e. the size of the flag leaf. This was greatest with the succinate dehydrogenase (SDH) inhibitor bixafen, in comparison to the other comparison fungicides.

Wheat plants = test: Effect of single and double bixafen treatment on leaf area; details: for Area [rel.] of the flag leaf / Area [rel.] of the leaf F-1: untreated = 100
Description: Trial procedure: Wheat plants were treated at different development stages with bixafen once or twice (125 g/ha each time), and a measurement was made of the respective size of the flag leaf and of the leaf F-1 at the time BBCH 75. For the destructive measurement of the leaf area, the leaves were removed from the plant. The non-destructive measurement was carried out on the intact leaf of the plant.

[2] = treated at BBCH 33 (125 g/ha), measured at BBCH 75, destructive
[3] = treated at BBCH 33 (125 g/ha), measured at BBCH 75, non-destructive
[4] = treated at BBCH 33 + 39 (125 g/ha each time), measured at BBCH 75, destructive
[5] = treated at BBCH 33 + 39 (125 g/ha each time), measured at BBCH 75, non-destructive
[6] = treated at BBCH 33 + 59 (125 g/ha each time), measured at BBCH 75, destructive
[7] = treated at BBCH 33 + 59 (125 g/ha each time), measured at BBCH 75, non-destructive
[8] = treated at BBCH 39 (125 g/ha), measured at BBCH 75, destructive
[9] = treated at BBCH 39 (125 g/ha), measured at BBCH 75, non-destructive
[10] = treated at BBCH 39 + 59 (125 g/ha each time), measured at BBCH 75, destructive
[11] = treated at BBCH 39 + 59 (125 g/ha each time), measured at BBCH 75, non-destructive
[12] = treated at BBCH 59 (125 g/ha), measured at BBCH 75, destructive
[13] = treated at BBCH 59 (125 g/ha), measured at BBCH 75, non-destructive

Structure (SMILES): Cn1cc(C(=O)Nc2ccc(F)cc2-c2ccc(Cl)c(Cl)c2)c(C(F)F)n1 [Bixafen, N-(3′,4′-dichloro-5-fluoro-1,1′-biphenyl-2-yl)-3-(difluoromethyl)-1-methyl-1H-pyrazole-4-carboxamide]
- Ears/m^2 (wheat variety Ritmo): 417
- Harvest Index (wheat variety Ritmo): 58.5
- Straw (wheat variety Ritmo): 590 g m^−2
- TKM (thousand-kernel mass) (wheat variety Ritmo): 47.7 g
- Yield (wheat variety Ritmo): 8.5 t ha^−1
- Length of the flag leaf [1]: 28.1 cm
- Width of the flag leaf [1]: 1.7 cm
- Area of the flag leaf [1]: 32.01 cm^2
- Area [rel.] of the flag leaf [1]: 146 rel.
- size (length and width) of the flag leaf compared with the other comparison fungicides ([1]; glasshouse trial, statement in words): greatest
- Area of the flag leaf (Wheat plants; [2]): 32.13 cm^2
- Area of the leaf F-1 (Wheat plants; [2]): 32.69 cm^2
- Length of the flag leaf (Wheat plants; [2]): 28.25 cm
- Length of the leaf F-1 (Wheat plants; [2]): 30.58 cm
- Width of the flag leaf (Wheat plants; [2]): 1.47 cm
- Width of the leaf F-1 (Wheat plants; [2]): 1.35 cm
- Area [rel.] of the flag leaf (Wheat plants; [2]): 115 rel.
- Area [rel.] of the leaf F-1 (Wheat plants; [2]): 119 rel.
- Area of the flag leaf (Wheat plants; [3]): 35.23 cm^2
- Length of the flag leaf (Wheat plants; [3]): 25.11 cm
- Width of the flag leaf (Wheat plants; [3]): 1.66 cm
- Area [rel.] of the flag leaf (Wheat plants; [3]): 109 rel.
- Area of the flag leaf (Wheat plants; [4]): 29.38 cm^2
- Area of the leaf F-1 (Wheat plants; [4]): 28.42 cm^2
- Length of the flag leaf (Wheat plants; [4]): 24.49 cm
- Length of the leaf F-1 (Wheat plants; [4]): 27.68 cm
- Width of the flag leaf (Wheat plants; [4]): 1.40 cm
- Width of the leaf F-1 (Wheat plants; [4]): 1.27 cm
- Area [rel.] of the flag leaf (Wheat plants; [4]): 105 rel.
- Area [rel.] of the leaf F-1 (Wheat plants; [4]): 103 rel.
- Area of the flag leaf (Wheat plants; [5]): 35.37 cm^2
- Length of the flag leaf (Wheat plants; [5]): 24.49 cm
- Width of the flag leaf (Wheat plants; [5]): 1.76 cm
- Area [rel.] of the flag leaf (Wheat plants; [5]): 109 rel.
- Area of the flag leaf (Wheat plants; [6]): 31.28 cm^2
- Area of the leaf F-1 (Wheat plants; [6]): 30.07 cm^2
- Length of the flag leaf (Wheat plants; [6]): 27.10 cm
- Length of the leaf F-1 (Wheat plants; [6]): 29.77 cm
- Width of the flag leaf (Wheat plants; [6]): 1.51 cm
- Width of the leaf F-1 (Wheat plants; [6]): 1.30 cm
- Area [rel.] of the flag leaf (Wheat plants; [6]): 112 rel.
- Area [rel.] of the leaf F-1 (Wheat plants; [6]): 109 rel.
- Area of the flag leaf (Wheat plants; [7]): 37.41 cm^2
- Length of the flag leaf (Wheat plants; [7]): 25.83 cm
- Width of the flag leaf (Wheat plants; [7]): 1.73 cm
- Area [rel.] of the flag leaf (Wheat plants; [7]): 115 rel.
- Area of the flag leaf (Wheat plants; [8]): 29.04 cm^2
- Area of the leaf F-1 (Wheat plants; [8]): 28.37 cm^2
- Length of the flag leaf (Wheat plants; [8]): 25.81 cm
- Length of the leaf F-1 (Wheat plants; [8]): 28.27 cm
- Width of the flag leaf (Wheat plants; [8]): 1.40 cm
- Width of the leaf F-1 (Wheat plants; [8]): 1.19 cm
- Area [rel.] of the flag leaf (Wheat plants; [8]): 104 rel.
- Area [rel.] of the leaf F-1 (Wheat plants; [8]): 103 rel.
- Area of the flag leaf (Wheat plants; [9]): 34.86 cm^2
- Length of the flag leaf (Wheat plants; [9]): 24.21 cm
- Width of the flag leaf (Wheat plants; [9]): 1.72 cm
- Area [rel.] of the flag leaf (Wheat plants; [9]): 108 rel.
- Area of the flag leaf (Wheat plants; [10]): 32.44 cm^2
- Area of the leaf F-1 (Wheat plants; [10]): 30.28 cm^2
- Length of the flag leaf (Wheat plants; [10]): 26.57 cm
- Length of the leaf F-1 (Wheat plants; [10]): 29.38 cm
- Width of the flag leaf (Wheat plants; [10]): 1.52 cm
- Width of the leaf F-1 (Wheat plants; [10]): 1.20 cm
- Area [rel.] of the flag leaf (Wheat plants; [10]): 116 rel.
- Area [rel.] of the leaf F-1 (Wheat plants; [10]): 110 rel.
- Area of the flag leaf (Wheat plants; [11]): 39.44 cm^2
- Length of the flag leaf (Wheat plants; [11]): 26.83 cm
- Width of the flag leaf (Wheat plants; [11]): 1.77 cm
- Area [rel.] of the flag leaf (Wheat plants; [11]): 122 rel.
- Area of the flag leaf (Wheat plants; [12]): 32.37 cm^2
- Area of the leaf F-1 (Wheat plants; [12]): 30.55 cm^2
- Length of the flag leaf (Wheat plants; [12]): 26.58 cm
- Length of the leaf F-1 (Wheat plants; [12]): 31.10 cm
- Width of the flag leaf (Wheat plants; [12]): 1.47 cm
- Width of the leaf F-1 (Wheat plants; [12]): 1.26 cm
- Area [rel.] of the flag leaf (Wheat plants; [12]): 116 rel.
- Area [rel.] of the leaf F-1 (Wheat plants; [12]): 111 rel.
- Area of the flag leaf (Wheat plants; [13]): 37.91 cm^2
- Length of the flag leaf (Wheat plants; [13]): 23.78 cm
- Width of the flag leaf (Wheat plants; [13]): 2.02 cm
- Area [rel.] of the flag leaf (Wheat plants; [13]): 117 rel.

Structure (SMILES): OC(Cc1ccccc1Cl)(Cn1nc[nH]c1=S)C1(Cl)CC1 (stereo not shown) [Prothioconazole]
- Ears/m^2 (wheat variety Ritmo): 397
- Harvest Index (wheat variety Ritmo): 59.3
- Straw (wheat variety Ritmo): 533 g m^−2
- TKM (thousand-kernel mass) (wheat variety Ritmo): 46.3 g
- Yield (wheat variety Ritmo): 8.1 t ha^−1
- Length of the flag leaf [1]: 26.7 cm
- Width of the flag leaf [1]: 1.3 cm
- Area of the flag leaf [1]: 23.26 cm^2
- Area [rel.] of the flag leaf [1]: 106 rel.
